Where two headings read alike, the source gives them in different places.
Legend:
Format in all cases: binding
[1] = molecular target: T1, HeLa cell extract proteins (Homo sapiens, UniProt P55795)
T1 construct: endogenous in cells; host or cells: HeLa cell extract
T1 sequence (P55795 1-449): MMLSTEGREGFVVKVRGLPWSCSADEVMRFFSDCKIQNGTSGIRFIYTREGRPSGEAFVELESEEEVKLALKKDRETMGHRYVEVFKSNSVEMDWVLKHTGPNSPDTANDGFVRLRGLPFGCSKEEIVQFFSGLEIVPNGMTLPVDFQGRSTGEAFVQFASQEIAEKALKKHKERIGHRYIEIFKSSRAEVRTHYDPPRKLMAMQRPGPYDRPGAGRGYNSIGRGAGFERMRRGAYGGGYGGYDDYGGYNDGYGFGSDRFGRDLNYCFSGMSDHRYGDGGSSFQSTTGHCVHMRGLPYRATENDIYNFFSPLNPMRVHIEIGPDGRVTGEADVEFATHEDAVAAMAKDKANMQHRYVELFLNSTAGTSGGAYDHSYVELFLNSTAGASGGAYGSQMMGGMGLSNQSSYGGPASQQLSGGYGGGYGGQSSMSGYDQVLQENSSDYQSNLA

[2] = molecular target: T2, HeLa cell extract proteins (Homo sapiens, UniProt Q8NEW0)
T2 construct: endogenous in cells; host or cells: HeLa cell extract
T2 sequence (Q8NEW0 1-376): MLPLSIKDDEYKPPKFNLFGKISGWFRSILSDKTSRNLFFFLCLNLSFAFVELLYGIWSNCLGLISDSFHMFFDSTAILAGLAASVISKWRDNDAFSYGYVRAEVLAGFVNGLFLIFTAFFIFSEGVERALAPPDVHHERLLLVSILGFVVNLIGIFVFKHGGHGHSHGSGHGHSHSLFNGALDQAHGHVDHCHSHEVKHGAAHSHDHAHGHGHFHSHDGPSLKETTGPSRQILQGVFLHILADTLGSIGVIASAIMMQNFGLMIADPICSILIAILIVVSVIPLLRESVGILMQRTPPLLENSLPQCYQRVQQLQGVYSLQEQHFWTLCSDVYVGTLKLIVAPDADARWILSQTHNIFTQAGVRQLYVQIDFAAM

[3] = molecular target: T3, HeLa cell extract proteins (Homo sapiens, UniProt O75153)
T3 construct: endogenous in cells; host or cells: HeLa cell extract
T3 sequence (O75153 1-1309): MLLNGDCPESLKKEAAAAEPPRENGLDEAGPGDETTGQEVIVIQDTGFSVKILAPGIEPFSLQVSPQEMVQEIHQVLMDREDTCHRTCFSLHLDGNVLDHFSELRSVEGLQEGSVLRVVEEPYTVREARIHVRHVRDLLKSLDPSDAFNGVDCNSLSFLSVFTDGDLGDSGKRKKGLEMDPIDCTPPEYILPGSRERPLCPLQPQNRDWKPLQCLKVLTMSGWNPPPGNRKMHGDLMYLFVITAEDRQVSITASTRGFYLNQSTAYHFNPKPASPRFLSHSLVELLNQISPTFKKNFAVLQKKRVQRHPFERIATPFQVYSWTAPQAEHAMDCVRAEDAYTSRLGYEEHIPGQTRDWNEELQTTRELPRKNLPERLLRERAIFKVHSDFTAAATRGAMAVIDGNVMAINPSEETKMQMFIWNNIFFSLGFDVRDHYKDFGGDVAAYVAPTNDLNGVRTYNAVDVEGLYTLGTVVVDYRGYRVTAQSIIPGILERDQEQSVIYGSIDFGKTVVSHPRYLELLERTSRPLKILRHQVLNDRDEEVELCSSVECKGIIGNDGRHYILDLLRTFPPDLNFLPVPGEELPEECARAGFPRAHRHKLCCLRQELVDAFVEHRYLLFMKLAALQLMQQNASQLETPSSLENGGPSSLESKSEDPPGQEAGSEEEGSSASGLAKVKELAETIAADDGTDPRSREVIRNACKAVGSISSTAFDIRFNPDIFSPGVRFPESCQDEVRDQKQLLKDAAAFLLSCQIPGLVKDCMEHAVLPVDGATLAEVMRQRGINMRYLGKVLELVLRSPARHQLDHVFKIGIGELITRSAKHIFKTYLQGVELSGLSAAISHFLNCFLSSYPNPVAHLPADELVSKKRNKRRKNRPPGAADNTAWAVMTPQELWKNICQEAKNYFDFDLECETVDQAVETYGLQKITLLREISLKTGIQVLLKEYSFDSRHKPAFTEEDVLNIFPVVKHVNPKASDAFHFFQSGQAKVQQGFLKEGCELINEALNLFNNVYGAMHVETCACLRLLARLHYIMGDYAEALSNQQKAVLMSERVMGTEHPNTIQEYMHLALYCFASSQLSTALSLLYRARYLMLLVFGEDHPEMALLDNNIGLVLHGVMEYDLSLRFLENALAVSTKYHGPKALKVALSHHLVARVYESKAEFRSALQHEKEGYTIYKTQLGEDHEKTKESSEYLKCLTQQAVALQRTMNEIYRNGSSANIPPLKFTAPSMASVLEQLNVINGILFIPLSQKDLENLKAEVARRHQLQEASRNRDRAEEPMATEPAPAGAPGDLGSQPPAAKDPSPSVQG

[4] = molecular target: T4, HeLa cell extract proteins (Homo sapiens, UniProt Q96PK6)
T4 construct: endogenous in cells; host or cells: HeLa cell extract
T4 sequence (Q96PK6 1-669): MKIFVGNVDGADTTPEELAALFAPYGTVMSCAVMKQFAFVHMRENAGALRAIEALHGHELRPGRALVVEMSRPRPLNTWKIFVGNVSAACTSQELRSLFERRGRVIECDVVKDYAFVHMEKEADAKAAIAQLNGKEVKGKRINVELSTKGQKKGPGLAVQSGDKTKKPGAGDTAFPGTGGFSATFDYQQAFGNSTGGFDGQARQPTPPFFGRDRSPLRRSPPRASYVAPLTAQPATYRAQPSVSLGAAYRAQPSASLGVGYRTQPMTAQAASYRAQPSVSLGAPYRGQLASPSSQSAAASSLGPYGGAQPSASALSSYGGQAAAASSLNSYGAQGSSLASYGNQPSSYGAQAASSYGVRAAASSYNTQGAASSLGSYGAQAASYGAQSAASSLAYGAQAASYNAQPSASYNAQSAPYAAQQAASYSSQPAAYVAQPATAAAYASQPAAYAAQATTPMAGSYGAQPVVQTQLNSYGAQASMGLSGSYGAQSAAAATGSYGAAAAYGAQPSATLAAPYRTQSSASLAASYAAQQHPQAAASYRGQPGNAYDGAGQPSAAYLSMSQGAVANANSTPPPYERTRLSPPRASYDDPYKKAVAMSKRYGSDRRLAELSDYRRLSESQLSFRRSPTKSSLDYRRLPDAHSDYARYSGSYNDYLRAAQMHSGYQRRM

[5] = HeLa, protein SLC30A7 (SOLUTE CARRIER FAMILY 30 MEMBER 7)

Row | SMILES | fold changes relative to vehicle control ([1]; HeLa, captured protein HNRNPH2) | fold changes relative to vehicle control [2, 5] | fold changes relative to vehicle control ([3]; protein KIAA0664, HeLa) | fold changes relative to vehicle control ([4]; HeLa, captured protein RBM14) | fold changes relative to vehicle control ([1]; protein HNRNPH2, HeLa) | fold changes relative to vehicle control ([2]; HeLa, protein SLC30A7) | fold changes relative to vehicle control ([3]; HeLa, protein KIAA0664) | fold changes relative to vehicle control ([4]; captured protein RBM14, HeLa) | further results
1 | Nc1nc2c(c(=O)[nH]1)N(C=O)C(CNc1ccc(C(=O)N[C@@H](CCC(=O)O)C(=O)O)cc1)CN2 (stereo partly shown) [LEU, leucovorin] | 0.9 | 1.06 | 1.17 | 0.92 | – | – | – | – | –
2 | Nc1nc2[nH]cc(CCc3ccc(C(=O)N[C@@H](CCC(=O)O)C(=O)O)cc3)c2c(=O)[nH]1 [PTX, pemetrexed] | – | – | – | – | – | – | – | – | fold changes relative to vehicle control [1]: 0.82; fold changes relative to vehicle control [2]: 0.97; fold changes relative to vehicle control [3]: 1.07; fold changes relative to vehicle control [4]: 0.99
3 | CCCCCCOc1ccc(Cc2cnc(N)nc2N)cc1 [compound 1] | – | – | – | – | 0.93 | 1.06 | 1.17 | 0.72 | –
4 | CCCCCCOc1cccc(Cc2cnc(N)nc2N)c1 [compound 2] | – | – | – | – | 0.96 | 1 | 1.25 | 1 | –
5 | Nc1nc2cccc(-c3ccccc3)c2n1Cc1ccc(Cl)c(Cl)c1 [compound 3] | – | – | – | – | 1.05 | 1.07 | 1.11 | 0.87 | –
6 | NCCOCCOCC(=O)Nc1nc2ncc(CNc3ccc(C(=O)NC(CCC(=O)O)C(=O)O)cc3)nc2c(=O)[nH]1 (stereo not shown) [compound 6] | 0.83 | 0.94 | 1.01 | 1.06 | – | – | – | – | –
7 | NCCCNc1ccc(C(=O)NC(CCC(=O)O)C(=O)O)cc1 (stereo not shown) [compound 7] | 0.91 | 1 | 1.12 | 1.1 | – | – | – | – | –

Reference: publication PMC6199744, “Development of Chemical Proteomics for the Folateome and Analysis of the Kinetoplastid Folateome” (ACS Infectious Diseases, 2018)
